Columns and labels:
Test in all cases: combination Emax (second highest fraction inhibited in the dose matrix, 72 h); higher = more inhibition; extreme values may be limits of the assay
CAL-78 (Chondrosarcoma) = system: CAL-78 (Chondrosarcoma)
How it was run: (§1)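 Cell lines grown in DMEM/F12 or RPMI with 10% FBS were plated in 1536-well plates and held 24 hours at 37°C, 5% CO2 before 72 hours of exposure to two-drug dose matrices, with DMSO typically at 0.2%. CellTiter-Glo 2.0 luminescence gave viability, which was converted to inhibition. Vehicle wells were set to 0 and blank wells to 1. Combination Emax is the second-highest inhibition in the matrix, and Bliss excess is the observed combination effect minus the expected EA + EB − EA·EB, where EA and EB are the single-agent effects.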

[1] = system: CFPAC-1 (Pancreatic Carcinoma)
How it was run: as §1

[2] = system: COR-L23 (Non-Small Cell Lung Carcinoma)
How it was run: as §1

[3] = system: COR-L95 (Small Cell Lung Carcinoma)
How it was run: as §1

ES7 (Ewing's Sarcoma) = system: ES7 (Ewing's Sarcoma)
How it was run: as §1

[4] = system: G-292-Clone-A141B1 (Osteosarcoma)
How it was run: as §1

[5] = system: HCC2157 (Breast Carcinoma)
How it was run: as §1

[6] = system: HPAC (Pancreatic Carcinoma)
How it was run: as §1

[7] = system: HT-29 (Colorectal Carcinoma)
How it was run: as §1

J82 (Bladder Carcinoma) = system: J82 (Bladder Carcinoma)
How it was run: as §1

[8] = system: KARPAS-620 (Plasma Cell Myeloma)
How it was run: as §1

[9] = system: LU-99A (Non-Small Cell Lung Carcinoma)
How it was run: as §1

[10] = system: MDA-MB-231 (Breast Carcinoma)
How it was run: as §1

[11] = system: NALM-6 (B-Lymphoblastic Leukemia)
How it was run: as §1

[12] = system: SNU-C5 (Colorectal Carcinoma)
How it was run: as §1

[13] = system: SUIT-2 (Pancreatic Carcinoma)
How it was run: as §1

[14] = system: SW1088 (Low Grade Glioma)
How it was run: as §1

[15] = system: SW1783 (Low Grade Glioma)
How it was run: as §1

[16] = system: TE-5 (Esophageal Squamous Cell Carcinoma)
How it was run: as §1

[17] = system: TGBC24TKB (Biliary Tract Carcinoma)
How it was run: as §1

Structure (SMILES) | combination Emax (CAL-78 (Chondrosarcoma)) | combination Emax [1] | combination Emax [2] | combination Emax [3] | combination Emax (ES7 (Ewing's Sarcoma)) | combination Emax [4] | combination Emax [5] | combination Emax [6] | combination Emax [7] | combination Emax (J82 (Bladder Carcinoma)) | combination Emax [8] | combination Emax [9] | combination Emax [10] | combination Emax [11] | combination Emax [12] | combination Emax [13] | combination Emax [14] | combination Emax [15] | combination Emax [16] | combination Emax [17]
NC1(C(=O)N[C@@H](CCO)c2ccc(Cl)cc2)CCN(c2ncnc3[nH]ccc23)CC1 [Capivasertib] + COc1nnc2ccc(N3CCC(c4ccc(OCCN5CCN(C)C(=O)[C@H]5C)cc4)CC3)nn12 [AZD5153] (first compound max 10 µM, 7x7, partner max 1 µM) | 0.489 | 0.531 | 0.552 | 0.399 | 0.811 | 0.573 | 1 | 0.68 | 0.753 | 0.632 | 0.897 | 0.665 | 0.703 | 0.945 | 0.665 | 0.535 | 0.638 | 0.473 | 0.609 | 0.789
CC1(C)CCC(CN2CCN(c3ccc(C(=O)NS(=O)(=O)c4ccc(NCC5CCOCC5)c([N+](=O)[O-])c4)c(Oc4cnc5[nH]ccc5c4)c3)CC2)=C(c2ccc(Cl)cc2)C1 [Venetoclax] + COc1cc(Nc2ncc3c(n2)-c2ccc(Cl)cc2C(c2c(F)cccc2OC)=NC3)ccc1C(=O)O [Alisertib] (first compound max 1 µM, 7x7, partner max 10 µM) | 0.598 | 0.402 | 0.307 | 0.705 | 0.917 | 0.484 | 0.877 | 0.688 | 0.418 | 0.351 | 1 | 0.44 | 0.392 | 0.977 | 0.347 | 0.106 | 0.679 | 0.634 | 0.137 | 0.638
CCN(CCO)CCCOc1ccc2c(Nc3cc(CC(=O)Nc4cccc(F)c4)[nH]n3)ncnc2c1 [AZD2811] + C=CCn1c(=O)c2cnc(Nc3ccc(N4CCN(C)CC4)cc3)nc2n1-c1cccc(C(C)(C)O)n1 [AZD1775] (first compound max 1 µM, partner max 1 µM) | 0.51 | 0.372 | 0.349 | 0.655 | 0.783 | 0.152 | 0.854 | 0.643 | 0.82 | 0.315 | 0.327 | 0.585 | 0.394 | 0.915 | 0.59 | 0.625 | 0.47 | 0.193 | 0.313 | 0.651
CC1(C)CCC(CN2CCN(c3ccc(C(=O)NS(=O)(=O)c4ccc(NCC5CCOCC5)c([N+](=O)[O-])c4)c(Oc4cnc5[nH]ccc5c4)c3)CC2)=C(c2ccc(Cl)cc2)C1 [Venetoclax] + Cn1cnc2c(F)c(Nc3ccc(Br)cc3Cl)c(C(=O)NOCCO)cc21 [Selumetinib] (first compound max 1 µM, 7x7, partner max 3 µM) | 0.146 | 0.275 | 0.2 | 0.572 | 0.7 | 0.146 | 0.278 | 0.559 | 0.64 | 0.122 | 1 | 0.324 | 0.38 | 0.908 | 0.289 | 0.26 | 0.146 | 0.124 | 0.107 | 0.293
CN(CCO)CC[C@H](CSc1ccccc1)Nc1ccc(S(=O)(=O)NC(=O)c2ccc(N3CCC([C@@H](O)c4ccccc4-c4ccc(Cl)cc4)CC3)cc2)cc1S(=O)(=O)C(F)(F)F [AZD4320] + C1CN(CCC1(C(=O)N[C@@H](CCO)C2=CC=C(C=C2)Cl)N)C3=NC=NC4=C3C=CN4 [Capivasertib] (first compound max 1 µM, 7x7, partner max 3 µM) | 0.524 | 0.0708 | 0.258 | 1 | 0.762 | 0.754 | 0.991 | 0.137 | 0.196 | 0.164 | 1 | 0.35 | 0.376 | 0.983 | 0.3 | 0.074 | 0.423 | 0.44 | 0.321 | 0.687
Cc1c2c(nn1C)CSCc1cc(n(C)n1)CSc1cc(c3ccccc3c1)OCCCc1c(C(=O)O)n(C)c3c-2c(Cl)ccc13 [AZD5991] + CCN(CCO)CCCOc1ccc2c(Nc3cc(CC(=O)Nc4cccc(F)c4)[nH]n3)ncnc2c1 [AZD2811] (first compound max 1 µM, 7x7, partner max 1 µM) | 0.868 | 0.256 | 0.201 | 0.449 | 0.95 | 0.276 | 0.985 | 0.623 | 0.383 | 0.192 | 1 | 0.37 | 0.321 | 0.655 | 0.288 | 0.19 | 0.494 | 0.246 | 0.261 | 0.543
COc1nnc2ccc(N3CCC(c4ccc(OCCN5CCN(C)C(=O)[C@H]5C)cc4)CC3)nn12 [AZD5153] + Cn1cnc2c(F)c(Nc3ccc(Br)cc3Cl)c(C(=O)NOCCO)cc21 [Selumetinib] (first compound max 1 µM, 7x7, partner max 10 µM) | 0.391 | 0.584 | 0.422 | 0.218 | 0.549 | 0.317 | 1 | 0.82 | 0.848 | 0.496 | 0.99 | 0.949 | 0.73 | 0.886 | 0.619 | 0.558 | 0.513 | 0.246 | 0.429 | 0.893
CN(CCO)CC[C@H](CSc1ccccc1)Nc1ccc(S(=O)(=O)NC(=O)c2ccc(N3CCC([C@@H](O)c4ccccc4-c4ccc(Cl)cc4)CC3)cc2)cc1S(=O)(=O)C(F)(F)F [AZD4320] + Cc1cc2ncnn2cc1Nc1ncc2c(n1)n(C1CCOCC1)c(=O)n2C [AZD7648] (first compound max 1 µM, 7x7, partner max 10 µM) | 0.46 | 0.134 | 0.0958 | 1 | 0.804 | 0.624 | 0.959 | 0.321 | 0.149 | 0.0607 | 1 | 0.447 | 0.637 | 0.975 | 0.225 | 0.104 | 0.332 | 0.366 | 0.531 | 0.682
COc1cccc(OCCCN)c1-c1cc(Nc2cnc(C#N)cn2)n[nH]1 [Prexasertib] + C[C@@H]1COCCN1C2=NC(=NC(=C2)C3(CC3)[S@](=N)(=O)C)C4=C5C=CNC5=NC=C4 [AZD6738] (first compound max 1 µM, 7x7, partner max 10 µM) | 0.604 | 0.643 | 0.685 | 0.675 | 0.855 | 0.325 | 0.971 | 0.769 | 0.857 | 0.522 | 0.856 | 0.767 | 0.705 | 0.943 | 0.894 | 0.747 | 0.762 | 0.496 | 0.548 | 0.918
NC1(C(=O)N[C@@H](CCO)c2ccc(Cl)cc2)CCN(c2ncnc3[nH]ccc23)CC1 [Capivasertib] + CC(=O)c1c(C)c2cnc(Nc3ccc(N4CCNCC4)cn3)nc2n(C2CCCC2)c1=O [Palbociclib] (first compound max 10 µM, 7x7, partner max 10 µM) | 0.542 | 0.519 | 0.442 | 0.172 | 0.655 | 0.333 | 1 | 0.589 | 0.577 | 0.452 | 0.781 | 0.502 | 0.577 | 0.858 | 0.567 | 0.552 | 0.654 | 0.407 | 0.359 | 0.556
Cc1nc(Nc2ncc(C(=O)Nc3c(C)cccc3Cl)s2)cc(N2CCN(CCO)CC2)n1 [Dasatinib] + CC(=O)Nc1cccc(-n2c(=O)n(C3CC3)c(=O)c3c(Nc4ccc(I)cc4F)n(C)c(=O)c(C)c32)c1 [Trametinib] (first compound max 2 µM, 7x7, partner max 1 µM) | 0.474 | 0.847 | 0.85 | 0.128 | 0.294 | 0.722 | 0.423 | 0.893 | 0.981 | 0.276 | 0.645 | 0.943 | 0.832 | 0.621 | 0.571 | 0.671 | 0.666 | 0.43 | 0.322 | 0.736
CC1(C)CCC(CN2CCN(c3ccc(C(=O)NS(=O)(=O)c4ccc(NCC5CCOCC5)c([N+](=O)[O-])c4)c(Oc4cnc5[nH]ccc5c4)c3)CC2)=C(c2ccc(Cl)cc2)C1 [Venetoclax] + C1CN(CCC1(C(=O)N[C@@H](CCO)C2=CC=C(C=C2)Cl)N)C3=NC=NC4=C3C=CN4 [Capivasertib] (first compound max 1 µM, 7x7, partner max 3 µM) | 0.263 | 0.305 | 0.245 | 0.719 | 0.8 | 0.273 | 0.903 | 0.148 | 0.254 | 0.259 | 1 | 0.312 | 0.184 | 0.848 | 0.318 | 0.129 | 0.494 | 0.342 | 0.255 | 0.253

Reference: the supplement of paper PMC11061612
